# Legend:
# Recombinant human TDO = Recombinant human TDO (Homo sapiens, UniProt P48775); assay: hTDO biochemical coupled assay; details: 330 μM L-tryptophan, coupled with kynurenine formamidase
# Procedure: (§1) Exemplary compounds of the invention were prepared, and tested to determine their effect as TDO and/or IDO inhibitors. Two different assays were employed: 1. a cell-based assay for detecting the effect of test compounds on kynurenine production in two different cancer cell types. This assay utilised cancer cells which expressed either TDO or IDO and as such was used as a means of testing compound activity at these two enzymes in a cell-based context. 2. a TDO and IDO biochemical coupled assay which utilised recombinantly produced and purified TDO and IDO enzymes in combination with the enzyme formamidase. This coupled enzyme system allowed conversion of N-formylkynurenine produced by TDO or IDO activity to kynurenine which was then quantified by fluorescence following addition of Erhlich's Reagent The protocols for these are set out below.
# Recombinant human IDO or TDO was incubated in 50 mM KPO4 (pH 7.0), 0.5 mM EGTA, 0.5 mM EDTA, 0.05% Triton™ X100, 20 mM ascorbate, 10 μM methylene blue, 500 U/ml catalase, 50 μg/ml KynB (kynurenine formamidase). TDO assays were carried out in the presence of 330 μM L-tryptophan, while IDO assays had the addition of 45 μM L-tryptophan. After incubation for 17 minutes at room temperature the reactions were stopped by the addition of Erhlich's reagent and incubated at room temperature for 5 minutes before the fluorescence was read (Ex475, Em530).
# [1] = target: T1, TDO (A172 human glioblastoma cells) (Homo sapiens, UniProt P48775); assay: A172 Kynurenine cell based assay; details: 500 μM L-tryptophan, 48 hours, kynurenine by Erhlich's reagent
# T1 construct: This assay utilised cancer cells which expressed either TDO or IDO; endogenous in cells; host or cells: A172 human glioblastoma cells
# How it was run: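 Kynurenine released into the supernatant was quantified by absorbance at 490 nm after 5 min with Erhlich's reagent. A172 cells were seeded at 30,000/well and exposed to test compound for 48 hours at 37° C. in phenol red-free RPMI containing 500 μM L-tryptophan, 10% FCS and 2 mM L-glutamine.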
# Recombinant human IDO = Recombinant human IDO (Homo sapiens, UniProt P14902); assay: hIDO biochemical coupled assay; details: 45 μM L-tryptophan, coupled with kynurenine formamidase
# Procedure: as §1
# Recombinant human IDO or TDO was incubated in 50 mM KPO4 (pH 7.0), 0.5 mM EGTA, 0.5 mM EDTA, 0.05% Triton™ X100, 20 mM ascorbate, 10 μM methylene blue, 500 U/ml catalase, 50 μg/ml KynB (kynurenine formamidase).
# [2] = target: T2, IDO (SKOV3 human ovarian adenocarcinoma cells, IFN-γ induced) (Homo sapiens, UniProt P14902); assay: SKOV3 Kynurenine cell based assay; details: IDO induced by 500 ng/ml IFN-γ, 500 μM L-tryptophan, 48 hours
# T2 construct: IDO expression was induced in the SKOV3 cells by the addition of 500 ng/ml IFN-γ; endogenous in cells; host or cells: SKOV3 human ovarian adenocarcinoma cells, induced with IFN-γ
# How it was run: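 Kynurenine in the supernatant, detected by Ehrlich's reagent, served as read-out after 48 h at 37° C with or without test compound. SKOV3 cells (40,000/well) were grown in phenol red-free RPMI, 10% FCS, 2 mM L-glutamine, 500 μM L-tryptophan, with 500 ng/ml IFN-γ to induce IDO.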
# T1 sequence (P48775 whole entry): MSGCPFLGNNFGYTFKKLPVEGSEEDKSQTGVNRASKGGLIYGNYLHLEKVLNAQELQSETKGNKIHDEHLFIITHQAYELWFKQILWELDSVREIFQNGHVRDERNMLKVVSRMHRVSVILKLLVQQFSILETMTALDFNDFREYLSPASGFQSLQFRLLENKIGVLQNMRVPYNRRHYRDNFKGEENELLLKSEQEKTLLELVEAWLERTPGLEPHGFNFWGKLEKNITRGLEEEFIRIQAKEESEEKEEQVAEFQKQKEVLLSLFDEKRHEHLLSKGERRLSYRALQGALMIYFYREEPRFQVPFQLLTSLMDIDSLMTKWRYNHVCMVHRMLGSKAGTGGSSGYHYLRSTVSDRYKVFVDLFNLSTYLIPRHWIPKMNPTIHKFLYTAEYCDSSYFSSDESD
# Sequence of Recombinant human TDO (P48775 whole entry): as above
# Sequence of Recombinant human IDO (P14902 whole entry): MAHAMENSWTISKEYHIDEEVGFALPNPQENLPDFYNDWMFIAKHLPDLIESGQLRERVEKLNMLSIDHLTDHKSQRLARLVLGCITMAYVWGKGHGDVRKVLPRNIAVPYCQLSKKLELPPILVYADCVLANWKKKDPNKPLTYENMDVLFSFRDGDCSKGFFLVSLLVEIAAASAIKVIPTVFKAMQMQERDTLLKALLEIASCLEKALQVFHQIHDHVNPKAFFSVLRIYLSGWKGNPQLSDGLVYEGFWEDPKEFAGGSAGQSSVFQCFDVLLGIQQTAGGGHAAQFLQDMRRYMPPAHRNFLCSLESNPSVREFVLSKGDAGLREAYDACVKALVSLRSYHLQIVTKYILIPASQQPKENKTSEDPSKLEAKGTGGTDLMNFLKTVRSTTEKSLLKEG
# T2 sequence (P14902 whole entry): as above
Compound,hTDO biochemical assay pIC50 (Recombinant human TDO),A172 Kynurenine cell based assay pIC50 [1],hIDO biocehmical assay pIC50 (Recombinant human IDO),SKOV3 Kynurenine cell based assay pIC50 [2]
CNS(=O)(=O)N1CCN(c2c[nH]c3ccccc23)CC1 [Compound 295],+ (+ = pIC50 4.00-4.99),++ (++ = pIC50 5.00-5.99),–,–
NS(=O)(=O)N1CCN(c2c[nH]c3ccccc23)CC1 [Compound 311],+ (+ = pIC50 4.00-4.99),++ (++ = pIC50 5.00-5.99),–,–
COc1ccc2[nH]cc(C3CCN(C(C)=O)CC3)c2c1 [Compound 199],+ (+ = pIC50 4.00-4.99),–,–,–
CC(=O)N1CC=C(c2c[nH]c3cnccc23)CC1 [Compound 198],+ (+ = pIC50 4.00-4.99),–,–,–
CC(=O)N1CC=C(c2c[nH]c3ccccc23)CC1 [Compound 210],++ (++ = pIC50 5.00-5.99),++ (++ = pIC50 5.00-5.99),–,–
O=S1(=O)CCC2CN(c3c[nH]c4ccccc34)CCN21 (stereo not shown) [Compound 304],+ (+ = pIC50 4.00-4.99),++ (++ = pIC50 5.00-5.99),–,–
CS(=O)(=O)N1CC=C(c2c[nH]c3ccccc23)CC1 [Compound 209],++ (++ = pIC50 5.00-5.99),++ (++ = pIC50 5.00-5.99),–,–
CNCC1CN(c2c[nH]c3ccccc23)CCN1S(C)(=O)=O (stereo not shown) [Compound 319],+ (+ = pIC50 4.00-4.99),++ (++ = pIC50 5.00-5.99),–,–
COc1cccc2[nH]cc(C3=CCN(S(C)(=O)=O)CC3)c12 [Compound 197],+ (+ = pIC50 4.00-4.99),–,–,–
NS(=O)(=O)N1CCC(c2c[nH]c3cc(F)ccc23)CC1 [Compound 249],+ (+ = pIC50 4.00-4.99),++ (++ = pIC50 5.00-5.99),–,–
Cn1cc(C2=CCN(S(C)(=O)=O)CC2)c2ccccc21 [Compound 204],+ (+ = pIC50 4.00-4.99),–,–,–
Cn1cc(S(=O)(=O)N2CCC(c3c[nH]c4cc(F)ccc34)CC2)cn1 [Compound 286],+ (+ = pIC50 4.00-4.99),++ (++ = pIC50 5.00-5.99),–,–
Cc1cccc2c(C3CCN(S(=O)(=O)c4cc(F)c(F)cc4Cl)CC3)c[nH]c12 [Compound 38],–,+ (+ = pIC50 4.00-4.99),+− (+− = pIC50 <4.00),+− (+− = pIC50 <4.00)
CC(=O)N1CC=C(c2c[nH]c3ccc(OCc4ccccc4)cc23)CC1 [Compound 155],–,+ (+ = pIC50 4.00-4.99),+− (+− = pIC50 <4.00),+ (+ = pIC50 4.00-4.99)
CCc1cc(Br)ccc1S(=O)(=O)N1CCC(c2c[nH]c3ccc(C)cc23)CC1 [Compound 50],–,+ (+ = pIC50 4.00-4.99),+− (+− = pIC50 <4.00),+ (+ = pIC50 4.00-4.99)
CS(=O)(=O)N1CCC(c2c[nH]c3ccc(F)cc23)CC1 [Compound 159],–,++ (++ = pIC50 5.00-5.99),+− (+− = pIC50 <4.00),+− (+− = pIC50 <4.00)

Compound,hTDO biochemical assay pIC50 (Recombinant human TDO),A172 Kynurenine cell based assay pIC50 [1],hIDO biocehmical assay pIC50 (Recombinant human IDO),SKOV3 Kynurenine cell based assay pIC50 [2]
Cc1[nH]c2ccccc2c1C1CCN(S(C)(=O)=O)CC1 [Compound 161],–,+− (+− = pIC50 <4.00),+− (+− = pIC50 <4.00),+ (+ = pIC50 4.00-4.99)
O=C(C(F)F)N1CCC(c2c[nH]c3cc(F)ccc23)CC1 [Compound 260],+ (+ = pIC50 4.00-4.99),++ (++ = pIC50 5.00-5.99),–,–
CS(=O)(=O)N1CC=C(c2c[nH]c3cc(Cl)c(F)cc23)CC1 [Compound 227],+ (+ = pIC50 4.00-4.99),++ (++ = pIC50 5.00-5.99),–,–
CC(=O)N1CC=C(c2c[nH]c3cc(C)ccc23)CC1 [Compound 205],+ (+ = pIC50 4.00-4.99),+ (+ = pIC50 4.00-4.99),–,–
NS(=O)(=O)N1CCC(c2c[nH]c3ccccc23)CC1 [Compound 218],+ (+ = pIC50 4.00-4.99),++ (++ = pIC50 5.00-5.99),–,–
CS(=O)(=O)N1CC=C(c2c[nH]c3cnccc23)CC1 [Compound 171],–,++ (++ = pIC50 5.00-5.99),+− (+− = pIC50 <4.00),+− (+− = pIC50 <4.00)
CC(=O)N1CC=C(c2c[nH]c3ccncc23)CC1 [Compound 172],–,+ (+ = pIC50 4.00-4.99),+− (+− = pIC50 <4.00),+ (+ = pIC50 4.00-4.99)
Fc1ccc2c(C3CCN(c4ncccn4)CC3)c[nH]c2c1 [Compound 180],–,+ (+ = pIC50 4.00-4.99),+− (+− = pIC50 <4.00),++ (++ = pIC50 5.00-5.99)
CS(=O)(=O)N1CCCC(c2c[nH]c3cc(F)ccc23)CC1 (stereo not shown) [Compound 182],–,++ (++ = pIC50 5.00-5.99),+− (+− = pIC50 <4.00),+ (+ = pIC50 4.00-4.99)
CC(=O)N1CC=C(c2c[nH]c3cc(OCc4ccccc4)ccc23)CC1 [Compound 156],–,+ (+ = pIC50 4.00-4.99),+− (+− = pIC50 <4.00),+ (+ = pIC50 4.00-4.99)
Cc1nc(N2CCC(c3c[nH]c4cc(F)ccc34)CC2)no1 [Compound 184],–,++ (++ = pIC50 5.00-5.99),+− (+− = pIC50 <4.00),+ (+ = pIC50 4.00-4.99)
Cc1cc(S(=O)(=O)N2CCC(c3c[nH]c4ccc(F)cc34)CC2)c(Cl)cc1Cl [Compound 39],–,+ (+ = pIC50 4.00-4.99),+− (+− = pIC50 <4.00),+ (+ = pIC50 4.00-4.99)
CC(=O)Nc1ccc(S(=O)(=O)N2CCC(c3c[nH]c4ccccc34)CC2)cc1Cl [Compound 52],–,+− (+− = pIC50 <4.00),+− (+− = pIC50 <4.00),+ (+ = pIC50 4.00-4.99)
O=S(=O)(c1ccccc1OC(F)(F)F)N1CCC(c2c[nH]c3ccc(F)cc23)CC1 [Compound 51],–,+ (+ = pIC50 4.00-4.99),+− (+− = pIC50 <4.00),+ (+ = pIC50 4.00-4.99)
CC(=O)N1CCCC(c2c[nH]c3cc(F)ccc23)CC1 (stereo not shown) [Compound 181],–,++ (++ = pIC50 5.00-5.99),+− (+− = pIC50 <4.00),+− (+− = pIC50 <4.00)
CC(=O)N1CCN(c2c[nH]c3ccccc23)CC1 [Compound 107],–,+ (+ = pIC50 4.00-4.99),+− (+− = pIC50 <4.00),+− (+− = pIC50 <4.00)
